Test results reported in patent US20200131144A1, “AMINE OR (THIO)AMIDE CONTAINING LXR MODULATORS” (Phenex-FXR GmbH, priority 2017, published 2020).

Assays:
[1] = Pharmacokinetics in mice after single oral dosing, blood and liver exposure by LC-MS; assay type: in vivo, mice (C57/bl6/J); settings: for Kp at 4 h / Kp at 12 h: male, C57/bl6/J, mouse, liver/blood, read-out: liver/blood ratio; for Kp at 4 h / blood/plasma exposure / liver exposure / Kp at 12 h: single oral dose 20 mg/kg
Experimental: The pharmacokinetics of the compounds was assessed in mice after single dosing and oral administrations. Blood and liver exposure was measured via LC-MS.
The study design was as follows:
Animals: C57/bl6/J (Janvier) males Diet: standard rodent chow Dose: 20 mg/kg Animal handling: animals were withdrawn from food at least 12 h before administration Design: single dose oral administration, n=3 animals per group Sacrifice: at stated time point (4, 12 or 24 h) after administration Bioanalytics: LC-MS of liver and blood samples

[2] = molecular target: T1, LXRβ full length (FL) (Homo sapiens, UniProt P55055, INS174Q); assay: LXR Gal4 reporter transient transfection assay, mammalian two-hybrid, FL-M2H Gal4β; assay type: cell-based; settings: HEK293 cells; inverse agonist unless *
T1 construct: the full length (FL) proteins of LXRα (amino acids 1-447); NP005684; NP009052; expressed in transfected cells; host or cells: HEK293
T1 sequence (P55055 with tags, fused parts or gaps INS174Q): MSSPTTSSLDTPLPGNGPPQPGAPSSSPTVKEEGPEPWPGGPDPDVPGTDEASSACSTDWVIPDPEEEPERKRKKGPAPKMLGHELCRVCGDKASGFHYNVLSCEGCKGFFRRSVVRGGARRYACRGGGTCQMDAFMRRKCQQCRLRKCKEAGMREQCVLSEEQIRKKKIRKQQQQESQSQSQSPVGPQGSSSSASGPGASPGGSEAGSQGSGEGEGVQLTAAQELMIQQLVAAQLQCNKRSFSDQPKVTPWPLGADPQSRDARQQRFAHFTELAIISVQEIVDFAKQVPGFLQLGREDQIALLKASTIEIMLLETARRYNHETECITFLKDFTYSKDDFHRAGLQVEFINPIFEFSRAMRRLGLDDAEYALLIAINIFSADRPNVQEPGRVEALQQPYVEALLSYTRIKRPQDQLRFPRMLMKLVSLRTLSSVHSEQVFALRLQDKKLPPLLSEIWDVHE
In short: (§1)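 Mammalian two-hybrid read-out: interaction of LXRα or LXRβ (full length or ligand-binding domain, NFkB activation-domain fusions) with GAL4-fused SRC1 or NCoR domains drives GAL4-responsive firefly luciferase in HEK293 cells, normalised by Renilla cotransfection. Compounds given 4 h after transfection, ≤0.2% vehicle, cells lysed after 16 h.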

[3] = molecular target: T2, GST-LXRβ ligand-binding domain (Homo sapiens, UniProt P55055, INS174Q); assay: TR-FRETβ activity assay (NCoA3 coactivator peptide recruitment); assay type: biochemical; settings: 1 μM 24(S)-25-epoxycholesterol as prestimulating agonist; inverse agonist unless *
T2 construct: amino acids 156-461; NP009052; made in house; host or cells: E. coli
T2 sequence (P55055 with tags, fused parts or gaps INS174Q limits assumed): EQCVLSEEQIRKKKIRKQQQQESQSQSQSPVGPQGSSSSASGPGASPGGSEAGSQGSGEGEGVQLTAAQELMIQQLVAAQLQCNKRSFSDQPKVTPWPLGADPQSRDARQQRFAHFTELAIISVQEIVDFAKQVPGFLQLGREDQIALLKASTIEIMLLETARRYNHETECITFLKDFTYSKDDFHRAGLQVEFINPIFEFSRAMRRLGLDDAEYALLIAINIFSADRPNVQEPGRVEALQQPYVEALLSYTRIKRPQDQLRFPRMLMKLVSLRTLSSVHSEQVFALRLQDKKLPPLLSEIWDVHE
In short: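 Coactivator recruitment read as TR-FRET (ex 340, em 615 and 665 nm) after 1 h equilibration at 4° C, in triplicate. Mix held 76 nM GST-tagged LXRβ LBD (aa 156-461, E. coli), 400 nM biotin-NCoA3 peptide, Tb-cryptate anti-GST, streptavidin-XL665, 240 mM KCl buffer.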

[4] = molecular target: T3, LXRα full length (FL) (Homo sapiens, UniProt Q13133); assay: LXR Gal4 reporter transient transfection assay, mammalian two-hybrid, FL-M2H Gal4α; assay type: cell-based; settings: HEK293 cells; inverse agonist unless *
T3 construct: the full length (FL) proteins of LXRα (amino acids 1-447); NP005684; expressed in transfected cells; host or cells: HEK293
T3 sequence (Q13133 1-447): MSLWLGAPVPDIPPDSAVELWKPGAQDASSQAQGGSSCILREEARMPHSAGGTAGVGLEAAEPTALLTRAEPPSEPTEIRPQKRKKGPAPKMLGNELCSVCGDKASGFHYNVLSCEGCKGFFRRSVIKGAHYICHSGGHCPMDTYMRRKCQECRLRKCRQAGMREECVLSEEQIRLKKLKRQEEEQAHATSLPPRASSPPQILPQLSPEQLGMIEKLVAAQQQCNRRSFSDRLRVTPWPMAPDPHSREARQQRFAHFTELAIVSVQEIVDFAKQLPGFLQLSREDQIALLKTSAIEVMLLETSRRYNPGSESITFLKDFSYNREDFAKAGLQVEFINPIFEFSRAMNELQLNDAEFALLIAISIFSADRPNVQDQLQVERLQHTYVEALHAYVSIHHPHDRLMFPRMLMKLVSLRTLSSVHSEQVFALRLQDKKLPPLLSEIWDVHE
In short: as §1

| Kp at 4 h ([1]; time point 4 h) | blood/plasma exposure ([1]; time point 4 h) [µM] | liver exposure ([1]; time point 4 h) [µM] | EC50 [2] [nM] | EC50 [3] [nM] | EC50 [4] [nM] | Kp at 12 h ([1]; time point 12 h) | blood/plasma exposure ([1]; time point 12 h) [µM] | liver exposure ([1]; time point 12 h) [µM] | SMILES | oral bioavailability ([1]; single dose oral administration, 20 mg/kg) |
| --- | --- | --- | --- | --- | --- | --- | --- | --- | --- | --- |
| 45 | 0.20 | 9.08 | – | – | – | – | – | – | COC(=O)CS(=O)(=O)c1cccc(-c2ccc(CN(Cc3ccc(C(F)(F)F)o3)C(C)c3cccc4ccccc34)cc2)c1 (stereo not shown) [Example 6, Methyl 2-((4′-(((1-(naphthalen-1-yl)ethyl)((5-(trifluoromethyl)furan-2-yl)methyl)amino)methyl)-[1,1′-biphenyl]-3-yl)sulfonyl)acetate] | – |
| 44 | 0.01 | 0.42 | 100 to 1000 | 1000 to 10000 | 1000 to 10000 | – | – | – | N#Cc1ccc2ccccc2c1CN(Cc1ccc(-c2cccc(S(=O)(=O)CC(=O)O)c2)cc1)Cc1ccc(C(F)(F)F)o1 [7/7] | – |
| – | – | – | – | – | – | – | – | – | CCOC(=O)c1ccc(CN(Cc2ccc(-c3cccc(S(C)(=O)=O)c3)cc2)S(=O)(=O)c2c(C)cc(C)cc2C)o1 [SR9238, reference compound] | not orally bioavailable and hepatoselective |
| – | – | – | < 100 | < 100 | < 100 | 11 | 3.99 | 43.7 | Cc1ccc2c(F)cccc2c1C(=O)N(Cc1ccc(-c2cccc(C(C)(C)C(=O)O)c2)cc1)Cc1ccc(C(F)(F)F)o1 [27/12] | – |
| 64 | 1.0 | 64 | 100 to 1000 | 100 to 1000 | 1000 to 10000 | – | – | – | Cc1cc(C)c(CN(Cc2ccc(-c3cc(F)c(CO)c(S(=O)(=O)CC(=O)O)c3)cc2)Cc2ccc(C(F)(F)F)o2)c(C)c1 [20/1] | – |
| – | – | – | 100 to 1000 | 1000 to 10000 | 100 to 1000 | – | – | – | Cc1nc2cccnc2c(C(=O)N(Cc2ccc(C(F)(F)F)o2)Cc2ccc(-c3cccc(C(C)(C)C(=O)O)c3)cc2C#N)c1C [27/109] | – |
| 178 | 0.01 | 1.41 | 100 to 1000 | 1000 to 10000 | 100 to 1000 | – | – | – | Cc1ccc2ccccc2c1CN(Cc1ccc(C(F)(F)F)o1)Cc1ccc(-c2cncc(S(=O)(=O)CC(=O)O)c2)cc1Cl [26/8] | – |
| – | – | – | < 100 | < 100 | < 100 | – | – | – | Cc1ccc2ccccc2c1C(=O)N(Cc1ccc(-c2cccc([C@H](C)C(=O)O)c2)cc1)Cc1ccc(C(F)(F)F)o1 [10/6] | – |
| – | – | – | 1000 to 10000 | 1000 to 10000 | 1000 to 10000 | – | – | – | Cc1ccc2ccccc2c1C(=O)N(Cc1ccc(-c2cccc(S(=O)(=O)CC(=O)O)c2)cc1)Cc1ccc(C#N)o1 [27/2] | – |
| – | – | – | 1000 to 10000 | 1000 to 10000 | 1000 to 10000 | – | – | – | Cc1nc2ncccn2c1C(=O)N(Cc1ccc(-c2cccc(C(C)(C)C(=O)O)c2)cc1)Cc1ccc(C(F)(F)F)o1 [27/117] | – |
| 7.6 | 0.08 | 0.61 | < 100 | < 100 | < 100 | – | – | – | Cc1ccc2ccccc2c1C(=O)N(Cc1ccc(-c2cccc(C(C)(C)C(=O)NO)c2)cc1)Cc1ccc(C(F)(F)F)o1 [5/3] | – |
| – | – | – | < 100 | 100 to 1000 | < 100 | – | – | – | Cc1nc2cccnc2c(C(=O)N(Cc2ccc(-c3cccc(C(C)(C)C(=O)O)c3)cc2)Cc2ccc(C#N)o2)c1C [Example 33/1] | – |
| – | – | – | < 100 | 100 to 1000 | < 100 | – | – | – | Cc1nc2cccnc2c(C(=O)N(Cc2ccc(-c3cccc(C4(C(=O)O)CC4)c3)cc2)Cc2ccc(C(F)(F)F)o2)c1C [27/112] | – |
| – | – | – | < 100 | 100 to 1000 | < 100 | – | – | – | COc1cc(-c2cccc(C(C)(C)C(=O)O)c2)ccc1CN(Cc1ccc(C(F)(F)F)o1)C(=O)c1c(C)c(C)nc2ccccc12 [27/104] | – |
| – | – | – | 100 to 1000 | 1000 to 10000 | 100 to 1000 | – | – | – | Cc1cc(C)c(CN(Cc2ccc(C(F)(F)F)o2)Cc2ccc(-c3cccc(S(=O)(=O)CC(=O)O)c3)cc2F)c(C)c1 [Example 15, 2-((3′-Fluoro-4′-((((5-(trifluoromethyl)furan-2-yl)methyl)(2,4,6-trimethylbenzyl)amino)methyl)-[1,1′-biphenyl]-3-yl)sulfonyl)acetic acid] | – |
| – | – | – | < 100 | 100 to 1000 | < 100 | – | – | – | Cc1ccc2ccccc2c1C(=O)N(Cc1ccc(-c2cccc([C@H](C)C(=O)O)c2)cc1)Cc1cccc(C#N)c1 [27/84] | – |
| – | – | – | < 100 | 100 to 1000 | < 100 | – | – | – | Cc1cc(Br)cc(C)c1C(=O)N(Cc1ccc(-c2cccc(C(C)(C)C(=O)O)c2)cc1)Cc1ccc(C(F)(F)F)o1 [27/48] | – |
| – | – | – | < 100 | 100 to 1000 | < 100 | – | – | – | CC(C)(C(=O)O)c1cccc(-c2ccc(CN(Cc3ccc(C(F)(F)F)o3)Cc3cccc4c3CCOC4)cc2)c1 [27/15] | – |
| – | – | – | 1000 to 10000 | 1000 to 10000 | 1000 to 10000 | – | – | – | Cc1nc2ccc(=O)[nH]c2c(C(=O)N(Cc2ccc(-c3cccc(C(C)(C)C(=O)O)c3)cc2)Cc2ccc(C(F)(F)F)o2)c1C [Example 36, 2-(4′-((2,3-Dimethyl-6-oxo-N-((5-(trifluoromethyl)furan-2-yl)methyl)-5,6-dihydro-1,5-naphthyridine-4-carboxamido)methyl)-[1,1′-biphenyl]-3-yl)-2-methylpropanoic acid] | – |
| – | – | – | 100 to 1000 | 1000 to 10000 | 100 to 1000 | – | – | – | CCc1nc2ccncc2c(C(=O)N(Cc2ccc(-c3cccc(C(C)(C)C(=O)O)c3)cc2)Cc2ccc(C(F)(F)F)o2)c1C [27/89] | – |
| – | – | – | < 100 | 100 to 1000 | < 100 | – | – | – | Cc1ccc2c(F)cccc2c1CN(Cc1ccc(-c2cccc(C(C)(C)C(=O)O)c2)cc1)Cc1ccc(C(F)(F)F)o1 [27/44] | – |
| – | – | – | < 100 | 100 to 1000 | < 100 | – | – | – | Cc1nc2cccnc2c(C(=O)N(Cc2ccc(-c3cccc(C(C)(C)C(=O)O)c3)cc2)Cc2nc(C(F)(F)F)cs2)c1C [27/130] | – |
| – | – | – | – | – | – | 2.4 | 0.34 | 0.83 | Cc1cc(C)c(CN(Cc2ccc(-c3cncc(S(=O)(=O)CC(=O)O)c3)cc2)Cc2ccc(C(F)(F)F)o2)c(C)c1 [12/2] | – |
| – | – | – | < 100 | 100 to 1000 | < 100 | – | – | – | Cc1cnc2cccnc2c1C(=O)N(Cc1ccc(C(F)(F)F)o1)Cc1ccc(-c2cccc(C(C)(C)C(=O)O)c2)cc1Cl [27/115] | – |
| – | – | – | 1000 to 10000 | 1000 to 10000 | 1000 to 10000 | – | – | – | CCNC(=O)c1ccc(CN(Cc2ncc(-c3cccc(C(C)C(=O)O)c3)cc2Cl)C(=O)c2c(C)c(C)nc3ccccc23)o1 (stereo not shown) [27/99] | – |
| – | – | – | 100 to 1000 | 1000 to 10000 | 100 to 1000 | – | – | – | Cc1ccc2ccccc2c1CN(Cc1ccc(-c2cccc(C(=O)C(=O)O)c2)cc1)Cc1ccc(C(F)(F)F)o1 [27/82] | – |
